For three compounds, TGI and GI50 results are on record in PubChem BioAssay (NCI).

Molecules are shown by their SMILES.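 Following 48 hours of exposure in 96-well plates, responses at five concentrations were used to interpolate endpoints linearly. GI50 marks 50% less growth. TGI: concentration producing complete growth inhibition.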

Test systems include A549 NSCLC; UACC-62 melanoma; EKVX NSCLC; SK-MEL-28 melanoma; MOLT-4 leukemia; HCT-15 colon; COLO 205 colon; TK-10 renal; UO-31 renal; HT29 colon.
Common to all, as to assay: NCI anticancer screen, dose series, 48 h

Consider `c1ccc2c(OCCSCCCCCCCCCCSCCOc3cccc4ccccc34)cccc2c1`, for which the TGI in the assay on A549 NSCLC, with UACC-62 melanoma, in the assay with EKVX NSCLC, with SK-MEL-28 melanoma, with MOLT-4 leukemia and in the assay on HCT-15 colon was over 100 µM in each case. The TGI in the assay with COLO 205 colon, in the assay with TK-10 renal, in the assay on UO-31 renal and in the assay on HT29 colon was over 100 µM in each case.

With `O=C(/C=C/c1ccc[nH]1)c1ccc(-n2ccc(C(F)(F)F)n2)cc1`, the GI50 is 9.64 µM in the assay on A549 NSCLC; over 100 µM with UACC-62 melanoma; over 100 µM in the assay with EKVX NSCLC; over 100 µM in the assay on SK-MEL-28 melanoma; 13.8 µM in the assay on MOLT-4 leukemia; over 100 µM with HCT-15 colon. Moreover, the GI50 in the assay with COLO 205 colon is over 100 µM; with TK-10 renal, over 100 µM; with UO-31 renal, 0.56 µM; in the assay on HT29 colon it was over 100 µM. The TGI in the assay with A549 NSCLC, in the assay with UACC-62 melanoma, in the assay on EKVX NSCLC, in the assay on SK-MEL-28 melanoma, in the assay with MOLT-4 leukemia and with HCT-15 colon was over 100 µM in each case. Also, the TGI in the assay with COLO 205 colon was over 100 µM; with TK-10 renal, over 100 µM; in the assay on UO-31 renal it was 2.4 µM; in the assay with HT29 colon it was over 100 µM.

`CC1(C)OC2C(CO[Si](C)(C)C(C)(C)C)OC(n3c(I)c(C#C[Si](C)(C)C)c(=O)[nH]c3=O)C2O1` (stereo not given): the GI50 was over 100 µM with A549 NSCLC; 21.5 µM in the assay on UACC-62 melanoma; 59.6 µM in the assay with EKVX NSCLC; 1.83 µM in the assay with SK-MEL-28 melanoma; 1.47 µM in the assay on MOLT-4 leukemia; 2.39 µM with HCT-15 colon. Moreover, the GI50 is 1.59 µM in the assay on COLO 205 colon, 6.44 µM with TK-10 renal, 2.63 µM with UO-31 renal and 5.01 µM in the assay on HT29 colon. Besides, the TGI was over 100 µM in the assay with A549 NSCLC; 50.5 µM with UACC-62 melanoma; over 100 µM in the assay on EKVX NSCLC; 3.56 µM with SK-MEL-28 melanoma; 3.54 µM in the assay on MOLT-4 leukemia; 15.4 µM with HCT-15 colon. Besides, the TGI in the assay on COLO 205 colon stood at 2.94 µM; in the assay on TK-10 renal, 20 µM; in the assay on UO-31 renal, 10.4 µM; with HT29 colon, 23.7 µM.
